Results: publication PMC9606943, “Synthesis and Chemopreventive Potential of 5-FU/Genistein Hybrids on Colorectal Cancer Cells” (Pharmaceuticals, 2022)
Like-named read-outs stand apart in the source and are kept apart here.

How the values were obtained:
[1] = tested on: SW480; experiment: Sulforhodamine B cytotoxicity assay, SW480; format: cell-based, human; conditions: 48 h; for IC50: mean ± SE
Description: (§1) Two colon cancer cells (SW480 and SW620) and non-malignant cell lines (human keratinocytes, HaCaT; chinese hamster ovary, CHO-K1) were obtained from The European Collection of Authenticated Cell Cultures (ECACC, England). For biological evaluations, cells were cultured in Dulbecco’s Modified Eagle Medium, supplemented with 10% heat-inactivated (56 °C) horse serum, 1% penicillin/streptomycin and 1% non-essential amino acids (Gibco Invitrogen, Carlsbad, CA, USA). During the treatments, the serum was reduced to 3%, and the medium was supplemented with insulin ([…]) transferrin ([…]) and selenium (5 ng/mL) (ITS-defined medium; Gibco, Invitrogen, Carlsbad, USA). To avoid Mycoplasma spp. contamination, cell cultures were regularly tested by polymerase chain reaction.
(§2) Briefly, cells were seeded at 20,000 cells/well (for cytotoxicity assay) and 2500 cells/well (for the antiproliferative test) in 96-well tissue culture plates, incubating at 37 °C in a humidified atmosphere with 5% CO2. After the adaptation time (24 h), cells were treated with increasing concentrations of the hybrid molecules or DMSO (1%). At the end of each treatment, cells were fixed with trichloroacetic acid (50% v/v; MERCK) for one hour at 4 °C. Subsequently, cell proteins were stained with SRB (0.4% w/v; Sigma-Aldrich, United States) and washed with acetic acid (1%). After drying at room temperature, Tris-base (10 mM) was added to solubilize protein bound stain. Absorbance was read in a microplate reader (Mindray MR-96A) at 492 nm. All experiments were performed at least in duplicate.

[2] = tested on: SW620; experiment: Sulforhodamine B cytotoxicity assay, SW620; format: cell-based, human; conditions: 48 h; for IC50: mean ± SE
Description: as §1, §2

[3] = tested on: HaCaT; experiment: Sulforhodamine B cytotoxicity assay, HaCaT; format: cell-based, human; conditions: 48 h, mean ± SE, non-malignant cells
Description: as §1, §2

[4] = tested on: CHO-K1; experiment: Sulforhodamine B cytotoxicity assay, CHO-K1; format: cell-based, chinese hamster; conditions: 48 h, mean ± SE, non-malignant cells
Description: as §1, §2

[5] = tested on: SW620; experiment: Antiproliferative activity (sulforhodamine B), SW620; format: cell-based, human; conditions: dose- and time-dependent, from day 2 above 12.5 µM, from day 4 at 6.25 µM
Description: as §2

[6] = tested on: SW620 cells; experiment: Cell cycle distribution (PI, flow cytometry), SW620; format: cell-based, human; conditions: 48 h, IC50 concentration, versus DMSO control
Description: (§3) Cell cycle analysis was evaluated by flow cytometry using propidium iodide (PI). This experiment was carried out as previously described by Nicoletti et al. (1991). Then, 48 h after treatment with the IC50 value of the hybrids 4a, 4g and DMSO (1%) as a vehicle control, cells were collected by scraping and centrifugation, resuspending the cell pellet in a versene buffer. Thereafter, cells were fixed with 1.8 mL cold ethanol (70%) at 4 °C overnight. Alcohol was removed by subsequent washing twice with versene buffer. The final pellet was resuspended in 300 µL of PBS with 0.25 mg/mL RNAse (Type I-A, Sigma-Aldrich, Germany) and 0.1 mg/mL PI and incubated for 30 min in the dark at room temperature. FACS Canto II flow cytometer (BD Biosciences, USA) was used to read the PI fluorescence of 10,000 events. The analysis of data was performed with the software FlowJo 7.6.2 (Ashland, OR, USA).

[7] = tested on: SW620 cells; experiment: Mitochondrial membrane potential and plasma membrane integrity (DiOC6/PI), SW620; format: cell-based, human; conditions: 48 h, IC50 concentration
Description: (§4) The fluorescent dyes DiOC6 (3,3′-dihexyloxacarbocyanine iodide, Thermo Fisher Scientific, Waltham, MA, USA) and propidium iodide (PI) were used to evaluate possible changes in mitochondrial membrane potential induced by the hybrid molecules. Then, 2.5 × 10^5 cells/well were seeded in 6-well tissue culture plates and allowed to grow for 24 h. Then, these were treated with hybrids 4a and 4g (with the IC50 value for each compound). Cells were harvested by scrapping 48 h after treatment, stained with DiOC6 and propidium iodide (PI) at room temperature for 30 min in darkness. Flow cytometric analysis of 10,000 events was carried out to quantify cells with mitochondrial depolarization, excitation at 488 nm and detection of the emission with the green (530/15 nm) and the red (610/20 nm) filters.

[8] = tested on: SW620 cells
Description: (§6) SW480 and SW620 cells were treated for 48 h and further collected by scraping. After centrifugation, the cell pellet was resuspended in Annexin V/FITC–PI and incubated in darkness for 20 min. Data were obtained through flow cytometry and analyzed with FlowJo 7.6.2 (Ashland, OR, USA). […] Cells with positive staining for PI were considered dead cells, late apoptotic cells, necroptotic cells or secondary necrotic cells. All assays were repeated twice [56].

[9] = tested on: SW620 cells; experiment: Cell death induction (Annexin V/FITC and PI), SW620; conditions: 48 h
Description: as §6

[10] = tested on: SW480; experiment: Antiproliferative activity (sulforhodamine B), SW480; format: cell-based, human; conditions: dose- and time-dependent, from day 2 above 12.5 µM, from day 4 at 6.25 µM
Description: as §2

[11] = tested on: SW480 cells; experiment: Cell cycle distribution (PI, flow cytometry), SW480; format: cell-based, human; conditions: 48 h, IC50 concentration
Description: as §3

[12] = tested on: SW480 cells; experiment: Mitochondrial membrane potential and plasma membrane integrity (DiOC6/PI), SW480; format: cell-based, human; conditions: 48 h, IC50 concentration
Description: as §4

[13] = tested on: SW480 cells; experiment: Cell death induction (Annexin V/FITC and PI), SW480; format: cell-based, human; conditions: 48 h
Excerpt: All assays were repeated twice.

[14] = tested on: caspase-3; experiment: Apoptotic biomarker ELISA, caspase-3 in SW620 cells; format: cell-based, human; conditions: 48 h, IC50 concentration, versus DMSO control
Excerpt: (§5) Afterwards, cells were scraped and lysed with Cell Lysis Buffer (1X, Ref. #9803). The supernatant was used for the determination of apoptotic biomarkers after the treatment with the hybrid molecules. Enzyme-linked immunosorbent assay (ELISA) kits were provided by Elabscience Biotechnology Co., (Wuhan, Hubei, China) (caspase-8) and Cell-Signaling Technology (Danvers, MA, USA) (caspase-3 and p53), following the manufacturer’s instructions.

[15] = tested on: caspase 8; experiment: Apoptotic biomarker ELISA, caspase 8 in SW620 cells; format: cell-based, human; conditions: 48 h, IC50 concentration, versus DMSO control
Excerpt: as §5

[16] = tested on: tumor suppressor protein p53; experiment: Apoptotic biomarker ELISA, p53 in SW620 cells; format: cell-based, human; conditions: 48 h, IC50 concentration, versus DMSO control
Excerpt: as §5

[17] = tested on: normal VERO cells; conditions: cited from earlier work
[18] = tested on: human gastric cancer cell line (SGC-7901); design: method as in doi:10.1039/C6MD00268D; conditions: cited from earlier work
[19] = tested on: Hep-G2; conditions: cited from earlier work
[20] = tested on: RD; conditions: cited from earlier work
[21] = tested on: LU-1; conditions: cited from earlier work
[22] = tested on: FL; conditions: cited from earlier work

5-fluoro-1-((1-(3-((5-hydroxy-3-(4-hydroxyphenyl)-4-oxo-4H-chromen-7-yl)oxy)butyl)-1H-1,2,3-triazol-4-yl)methyl)pyrimidine-2,4(1H,3H)-dione [4c]
IC50 [1]: > 100 µM | IC50 [2]: > 100 µM | IC50 [3]: > 100 µM | IC50 [4]: > 100 µM

5-fluoro-1-((1-(3-((5-hydroxy-3-(4-hydroxyphenyl)-4-oxo-4H-chromen-7-yl)oxy)dodecyl)-1H-1,2,3-triazol-4-yl)methyl)pyrimidine-2,4(1H,3H)-dione
IC50 [1]: > 100 µM | Selectivity Index (SI) CHO-K1/620 [2]: >1.20 | Selectivity Index (SI) HaCaT/SW620 [2]: >1.20 | IC50 [2]: 83.6 ± 8.05 µM | IC50 [3]: > 100 µM | IC50 [4]: > 100 µM

5-fluoro-1-((1-(3-((5-hydroxy-3-(4-hydroxyphenyl)-4-oxo-4H-chromen-7-yl)oxy)hexyl)-1H-1,2,3-triazol-4-yl)methyl)pyrimidine-2,4(1H,3H)-dione [4e]
IC50 [1]: > 100 µM | IC50 [2]: > 100 µM | IC50 [3]: > 100 µM | IC50 [4]: > 100 µM

5-fluoro-1-((1-(3-((5-hydroxy-3-(4-hydroxyphenyl)-4-oxo-4H-chromen-7-yl)oxy)nonyl)-1H-1,2,3-triazol-4-yl)methyl)pyrimidine-2,4(1H,3H)-dione [4g]
IC50 [1]: > 100 µM | Selectivity Index (SI) CHO-K1/620 [2]: >2.71 | Selectivity Index (SI) HaCaT/SW620 [2]: >2.71 | IC50 [2]: 36.8 ± 0.71 µM | IC50 [3]: > 100 µM | IC50 [4]: > 100 µM | Antiproliferative activity (cell viability) [5]: significant decrease in the percentages of cell viability | Effect on cell cycle distribution [6]: important decrease in the population of cells in S-phase with a slight increase in G0/G1 | Change in mitochondrial membrane potential [7]: do not induce significant changes in mitochondrial membrane potential | Q3 (viable cells per legend) [8]: 0,00% | Plasma membrane integrity / cell death [9]: caused a loss in membrane integrity

5-fluoro-1-((1-(3-((5-hydroxy-3-(4-hydroxyphenyl)-4-oxo-4H-chromen-7-yl)oxy)octyl)-1H-1,2,3-triazol-4-yl)methyl)pyrimidine-2,4(1H,3H)-dione [4f]
Selectivity Index (SI) CHO-K1/SW480 [1]: >1.02 | Selectivity Index (SI) HaCaT/SW480 [1]: 0.51 | IC50 [1]: 97.5 ± 5.04 µM | Selectivity Index (SI) CHO-K1/620 [2]: >2.11 | Selectivity Index (SI) HaCaT/SW620 [2]: 1.05 | IC50 [2]: 47.4 ± 2.19 µM | IC50 [3]: 50 ± 7.17 µM | IC50 [4]: > 100 µM

5-fluoro-1-((1-(3-((5-hydroxy-3-(4-hydroxyphenyl)-4-oxo-4H-chromen-7-yl)oxy)pentyl)-1H-1,2,3-triazol-4-yl)methyl)pyrimidine-2,4(1H,3H)-dione [4d]
IC50 [1]: > 100 µM | IC50 [2]: > 100 µM | IC50 [3]: > 100 µM | IC50 [4]: > 100 µM

O=c1[nH]c(=O)n(Cc2cn(CCOc3cc(O)c4c(=O)c(-c5ccc(O)cc5)coc4c3)nn2)cc1F [4a, 5-fluoro-1-((1-(3-((5-hydroxy-3-(4-hydroxyphenyl)-4-oxo-4H-chromen-7-yl)oxy)ethyl)-1H-1,2,3-triazol-4-yl)methyl)pyrimidine-2,4(1H,3H)-dione]
Selectivity Index (SI) CHO-K1/SW480 [1]: 1.13 | Selectivity Index (SI) HaCaT/SW480 [1]: 1.03 | IC50 ([1]; Homo sapiens, SW480): 62.7 ± 7.26 µM | Selectivity Index (SI) CHO-K1/620 [2]: 1.41 | Selectivity Index (SI) HaCaT/SW620 [2]: 1.28 | IC50 ([2]; Homo sapiens, SW-620): 50.6 ± 1.33 µM | IC50 ([3]; Homo sapiens, HaCaT): 64.6 ± 1.07 µM | IC50 ([4]; Cricetulus griseus, CHO-K1): 71.1 ± 10.5 µM | Antiproliferative activity (cell viability) [10]: significant decrease in the percentages of cell viability | Antiproliferative activity (cell viability) [5]: significant decrease in the percentages of cell viability | Cell cycle distribution G0/G1 ([11]; representative histogram): 46.4% | Cell cycle distribution G2/M ([11]; representative histogram): 15.4% | Cell cycle distribution S-phase ([11]; representative histogram): 36.4% | Cell cycle distribution Sub G0/G1 ([11]; representative histogram): 1.8% | Effect on cell cycle distribution ([11]; versus DMSO control): important decrease in the population of G0/G1 after treatment with hybrid 4a, with a consequent increase in S-phase and G2/M | Effect on cell cycle distribution [6]: important decrease in the population of cells in S-phase with a slight increase in G0/G1 | Change in mitochondrial membrane potential [12]: do not induce significant changes in mitochondrial membrane potential | Change in mitochondrial membrane potential [7]: do not induce significant changes in mitochondrial membrane potential | Plasma membrane integrity / cell death [13]: caused a loss in membrane integrity | Protein levels of caspase-3 [14]: significant increase in the active form of caspase-3 | Protein levels of caspase 8 [15]: significant increase in the levels of caspase 8 | Protein levels of tumor suppressor protein Tp53 [16]: important changes in the levels of the tumor suppressor protein Tp53 | Plasma membrane integrity / cell death [9]: caused a loss in membrane integrity

O=c1[nH]c(=O)n(Cc2cn(CCCOc3cc(O)c4c(=O)c(-c5ccc(O)cc5)coc4c3)nn2)cc1F [4b, 5-fluoro-1-((1-(3-((5-hydroxy-3-(4-hydroxyphenyl)-4-oxo-4H-chromen-7-yl)oxy)propyl)-1H-1,2,3-triazol-4-yl)methyl)pyrimidine-2,4(1H,3H)-dione]
IC50 ([1]; Homo sapiens, SW480): > 100 µM | IC50 ([2]; Homo sapiens, SW-620): > 100 µM | IC50 ([3]; Homo sapiens, HaCaT): > 100 µM | IC50 ([4]; Cricetulus griseus, CHO-K1): > 100 µM | melting point: 175 to 178 °C

O=c1[nH]cc(F)c(=O)[nH]1 [5-FU, 5-fluorouracil]
Selectivity Index (SI) CHO-K1/SW480 [1]: 0.99 | Selectivity Index (SI) HaCaT/SW480 [1]: 0.68 | IC50 [17]: 3.33 µM | selectivity index SGC-7901 versus GES-1 ([18]; at 50 µM): 0.88 | selectivity index SGC-7901 versus GES-1 ([18]; at the concentration of 10 µM): 0.74

CC(C)c1ccc(/C=C/C(=O)c2cc(Cn3cc(F)c(=O)[nH]c3=O)ccc2O)cc1 [B]
IC50 [19]: 4.68 µM | IC50 [20]: 10.8 µM | IC50 [21]: 11.9 µM | IC50 [22]: 8.17 µM | IC50 [17]: 15 µM

O=C(Cn1cc(F)c(=O)[nH]c1=O)OCC[n+]1ccc(/C=C/c2c[nH]c3ccccc23)cc1 [C1]
selectivity index SGC-7901 versus GES-1 ([18]; at the concentration of 10 µM): 1.16

O=C(Cn1cc(F)c(=O)[nH]c1=O)NCC[n+]1ccc(/C=C/c2c[nH]c3ccccc23)cc1 [C2]
selectivity index SGC-7901 versus GES-1 ([18]; at 50 µM): 1.20 | selectivity index SGC-7901 versus GES-1 ([18]; at the concentration of 10 µM): 1.08

O=c1c(-c2ccc(O)cc2)coc2cc(O)cc(O)c12 [Genistein]
Selectivity Index (SI) CHO-K1/SW480 [1]: 1.01 | Selectivity Index (SI) HaCaT/SW480 [1]: 0.95 | IC50 ([1]; Homo sapiens, SW480): 48.1 ± 3.03 µM | Selectivity Index (SI) CHO-K1/620 [2]: 0.64 | Selectivity Index (SI) HaCaT/SW620 [2]: 0.63 | IC50 ([2]; Homo sapiens, SW-620): 75.8 ± 5.83 µM | IC50 ([3]; Homo sapiens, HaCaT): 45.9 ± 1.97 µM | IC50 ([4]; Cricetulus griseus, CHO-K1): 48.4 ± 4.13 µM
